Measurements from patent publication US8192962B2, “Processes for detecting toxic substances” (Daikin Industries, Ltd., priority 2001, dated 2012).

System: Genes belonging to other category
Assay: DNA chip mRNA expression in yeast, genes belonging to other category (Table 9)
Format: cell-based, Saccharomyces cerevisiae S288C
How it was run: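 Whole-genome yeast DNA chip hybridization (65° C., >12 h) of Cy-labeled cDNA from S288C cells exposed 2 h at 25° C. to a sub-lethal toxicant dose in YPD; value is intensity relative to chemical-free control.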

Measured: The level of expressed mRNA in the presence of chemical substance/The level of expressed mRNA in the absence of chemical substance

CCCCCCCCCCCCc1ccc(S(=O)(=O)[O-])cc1.[Na+] [(17), sodium dodecylbenzosulfonate]
0.5: yeast gene YKL096W
1.7: yeast gene YER039C | yeast gene YNR010W
1.6: yeast gene YKL013C | yeast gene YMR226C | yeast gene YOR036W | yeast gene YPL154C
3.3: yeast gene YLR327C
1.0: yeast gene YDR259C | yeast gene YEL066W | yeast gene YLR429W | yeast gene YMR094W | yeast gene YNL006W | yeast gene YOR124C | yeast gene YOR261C | yeast gene YPR108W
12.8: yeast gene YGR213C
1.8: yeast gene YBL078C | yeast gene YLR136C
3.0: yeast gene YER130C | yeast gene YNL093W
3.5: yeast gene YLR120C
1.3: yeast gene YBL005W-A | yeast gene YBL041W | yeast gene YDR085C | yeast gene YGR136W | yeast gene YHR142W | yeast gene YIL123W | yeast gene YMR314W
1.9: yeast gene YDR358W
0.8: yeast gene YGL158W | yeast gene YOR355W
0.9: yeast gene YCL020W | yeast gene YDR104C | yeast gene YFL022C | yeast gene YKL165C | yeast gene YMR004W | yeast gene YMR275C | yeast gene YOR185C | yeast gene YOR259C
2.0: yeast gene YDR055W | yeast gene YDR084C | yeast gene YLR178C
0.4: yeast gene YJR004C
2.2: yeast gene YPL149W
2.3: yeast gene YBL043W | yeast gene YGR189C
0.7: yeast gene YCL027W | yeast gene YDR432W | yeast gene YEL042W | yeast gene YIL140W
1.4: yeast gene YCR004C | yeast gene YCR088W | yeast gene YHR004C | yeast gene YHR139C | yeast gene YJR086W | yeast gene YKL008C | yeast gene YLR250W | yeast gene YLR391W | yeast gene YNL333W | yeast gene YOR117W | yeast gene YOR383C
1.1: yeast gene YBR214W | yeast gene YDL238C | yeast gene YDR510W | yeast gene YER107C | yeast gene YGL229C | yeast gene YGR257C | yeast gene YJL073W | yeast gene YLR356W | yeast gene YMR219W | yeast gene YNL007C | yeast gene YNR069C | yeast gene YOL013C | yeast gene YOL164W | yeast gene YOR181W | yeast gene YOR198C
1.2: yeast gene YCR071C | yeast gene YDR115W | yeast gene YDR315C | yeast gene YDR388W | yeast gene YDR481C | yeast gene YFL028C | yeast gene YJL089W | yeast gene YJL116C | yeast gene YKL039W | yeast gene YKL193C | yeast gene YLR362W | yeast gene YMR276W | yeast gene YOR132W | yeast gene YOR157C | yeast gene YPL109C | yeast gene YPR103W
1.5: yeast gene YAR010C | yeast gene YDL008W | yeast gene YFL043C | yeast gene YOR288C | yeast gene YPL089C
2.6: yeast gene YHR071W
2.8: yeast gene YMR104C
